With `CCC(O)OCCCOC` (configuration not stated) [1-(3-methoxypropoxy)propan-1-ol], the flash point was 74.00 °C.
Then `Cc1ccccc1CBr` [1-(bromomethyl)-2-methylbenzene], with 82.00 °C; and `Cc1cccc(CBr)c1` [1-(bromomethyl)-3-methylbenzene], with 82.00 °C; and `C=CCSSCCC` [1-(prop-2-enyldisulfanyl)propane], with 56.00 °C.
`CCCSSCCC` [1-(propyldisulfanyl)propane]: the flash point worked out at 66.00 °C.
Turning to `CC(CCN(C)C)N(C)C` (configuration not stated) [1-N,1-N,3-N,3-N-tetramethylbutane-1,3-diamine], the flash point was 46.00 °C.
The figure for `CCC(C)Nc1ccc(NC(C)CC)cc1` (configuration not stated) [1-N,4-N-di(butan-2-yl)benzene-1,4-diamine] is 141.00 °C.
In the case of `c1ccc(Nc2ccc(Nc3ccccc3)cc2)cc1` [1-N,4-N-diphenylbenzene-1,4-diamine], the flash point was found to be 204.00 °C.
The figure for `CC(C)Nc1ccc(Nc2ccccc2)cc1` [1-N-phenyl-4-N-propan-2-ylbenzene-1,4-diamine] is 151.00 °C; for `c1ccc2occc2c1` [1-benzofuran] it is 56.00 °C.
Then `ClCCCBr` [1-bromo-3-chloropropane], with 57.00 °C.
The figure for `Cc1cccc(Br)c1` [1-bromo-3-methylbenzene] is 60.00 °C.
`Fc1ccc(Br)cc1` [1-bromo-4-fluorobenzene] had a flash point of 60.00 °C.
For the molecule `CC(Br)c1ccccc1` (configuration not stated) [1-bromoethylbenzene], the flash point came out at 96.00 °C.
The figure for `CCCCOCC(C)O` (configuration not stated) [1-butoxypropan-2-ol] is 63.00 °C; for `FC(F)=C(F)Cl` [1-chloro-1,2,2-trifluoroethene] it is -27.00 °C.
The figure for `CCC(Cl)[N+](=O)[O-]` (configuration not stated) [1-chloro-1-nitropropane] is 62.00 °C; for `O=[N+]([O-])c1ccc(Cl)c([N+](=O)[O-])c1` [1-chloro-2,4-dinitrobenzene] it is 194.00 °C; for `ClCc1ccccc1Cl` [1-chloro-2-(chloromethyl)benzene] it is 91.00 °C.
The figure for `C=Cc1ccccc1Cl` [1-chloro-2-ethenylbenzene] is 59.00 °C; for `CCCCCCl` [1-chloropentane] it is 1.00 °C; for `CC(O)CCl` (configuration not stated) [1-chloropropan-2-ol] it is 52.00 °C.
As to `C=COCCOC` [1-ethenoxy-2-methoxyethane], the flash point was 18.00 °C.
On to `C=COCCCC` [1-ethenoxybutane], for which the flash point is -9.00 °C.
The figure for `C=Cc1cccc(C)c1` [1-ethenyl-3-methylbenzene] is 60.00 °C; for `C=Cc1ccc(C)cc1` [1-ethenyl-4-methylbenzene] it is 52.00 °C.
Then `CCOCCOCCOCC` [1-ethoxy-2-(2-ethoxyethoxy)ethane], with 54.00 °C; and `CCCCOCC` [1-ethoxybutane], with 4.00 °C.
Then `CCOCC(C)O` (configuration not stated) [1-ethoxypropan-2-ol], with 40.00 °C; and `CCOCC(C)OC(C)=O` (configuration not stated) [1-ethoxypropan-2-yl acetate], with 53.00 °C.
Regarding `Cc1ccccc1F` [1-fluoro-2-methylbenzene], the flash point was 13.00 °C.
`C=C(C)C(=O)OC(C)CO` (configuration not stated) [1-hydroxypropan-2-yl 2-methylprop-2-enoate] came in with a flash point of 121.00 °C.
The figure for `O=[N+]([O-])c1cccc(I)c1` [1-iodo-3-nitrobenzene] is 72.00 °C.
In the case of `O=C=Nc1ccc(Cc2ccc(N=C=O)cc2)cc1` [1-isocyanato-4-[(4-isocyanatophenyl)methyl]benzene], the flash point is 218.00 °C.
Then `CCCCN=C=O` [1-isocyanatobutane], with 19.00 °C; and `COCCOCCOCCOC` [1-methoxy-2-[2-(2-methoxyethoxy)ethoxy]ethane], with 111.00 °C; and `COCC(C)O` (configuration not stated) [1-methoxypropan-2-ol], with 36.00 °C.
Then `CC1(C2CCC3(C)OC3C2)CO1` (configuration not stated) [1-methyl-4-(2-methyloxiran-2-yl)-7-oxabicyclo[4.1.0]heptane], with 118.00 °C; and `Cc1ccc([N+](=O)[O-])cc1` [1-methyl-4-nitrobenzene], with 106.00 °C; and `C=C(C)C1CC=C(C)CC1` (configuration not stated) [1-methyl-4-prop-1-en-2-ylcyclohexene], with 46.00 °C.
Then `Cc1ccc(C(C)C)cc1` [1-methyl-4-propan-2-ylbenzene], with 47.00 °C; and `CC1=CCC(=C(C)C)CC1` [1-methyl-4-propan-2-ylidenecyclohexene], with 64.00 °C.
For the molecule `CC1(O)CCCCC1` [1-methylcyclohexan-1-ol], the flash point was 67.00 °C.
The figure for `CN1CCCC1=O` [1-methylpyrrolidin-2-one] is 96.00 °C; for `O=[N+]([O-])c1ccccc1-c1ccccc1` [1-nitro-2-phenylbenzene] it is 143.00 °C.
Then `O=[N+]([O-])c1cccc(C(F)(F)F)c1` [1-nitro-3-(trifluoromethyl)benzene], with 101.00 °C; and `CC[N+](=O)[O-]` [1-nitroethane], with 41.00 °C; and `CC(N)c1ccccc1` (configuration not stated) [1-phenylethanamine], with 79.00 °C.
`CC(O)c1ccccc1` (configuration not stated) [1-phenylethanol]: the flash point was determined as 85.00 °C.
The figure for `CC(N)Cc1ccccc1` (configuration not stated) [1-phenylpropan-2-amine] is 27.00 °C; for `CCCOCCC` [1-propoxypropane] it is 21.00 °C.
Regarding `Cc1ccc(C(C)(C)C)cc1` [1-tert-butyl-4-methylbenzene], the flash point is 58.00 °C.
Then `c1c[nH]cn1` [1H-imidazole], with 145.00 °C.
The figure for `c1cc[nH]c1` [1H-pyrrole] is 39.00 °C.
Then `N#CC(Cl)(Cl)Cl` [2,2,2-trichloroacetonitrile], with 74.00 °C.
Turning to `CC(C)C(O)C(C)(C)CO` (configuration not stated) [2,2,4-trimethylpentane-1,3-diol], the flash point came to 113.00 °C.
`O=CC(Cl)Cl` [2,2-dichloroacetaldehyde] showed a flash point of 60.00 °C.
In turn, `O=C(Cl)C(Cl)Cl` [2,2-dichloroacetyl chloride] showed a flash point of 66.00 °C.
The figure for `OCC(Cl)Cl` [2,2-dichloroethanol] is 78.00 °C.
The figure for `C=C1C2CCC(C2)C1(C)C` (configuration not stated) [2,2-dimethyl-3-methylidenebicyclo[2.2.1]heptane] is 33.00 °C; for `Oc1c(Cl)cc(Cl)c(Cl)c1Cl` [2,3,4,6-tetrachlorophenol] it is 100.00 °C; for `CCCCCCCC(=O)OCC(COC(=O)CCCCCCC)OC(=O)CCCCCCC` [2,3-di(octanoyloxy)propyl octanoate] it is 177.00 °C.
